Source: patent US5141934A, “Tetracyclic amines having pharmaceutical activity” (Warner-Lambert Company, priority 1990, dated 1992)

The molecules below were run against phencyclidine (PCP) receptors (noncompetitive NMDA antagonist binding site) (assay: Tritiated 1[1-(2 thienyl)cyclohexyl]piperidine (TCP) binding, designated RBS1). Conditions: Table 1, read-out: RBSI IC50.
Method: The ability of the compounds of the instant invention to interact with phencyclidine (PCP) receptors which represents a noncompetitive NMDA antagonist binding site, is shown in Table 1. Tritiated 1[1-(2 thienyl)cyclohexyl]piperidine (TCP) binding, designated RBS1, was carried out essentially as described in J. Pharmacol. Exp. Ther., 238, 739 (1986).

Row | SMILES | IC50
1 | c1ccc(C2(N3CCCCC3)CCCCC2)cc1 [PCP, phencyclidine] | 40 nM
2 | CCCN1C[C@@H]2Cc3ccccc3[C@]13CCCC[C@@H]23 (relative stereo) [Example 19, (+/-)-(4aα,10α,10aα)-1,3,4,9,10,10a-Hexahydro-12-propyl-2H-4a,10-(iminomethano)phenanthrene] | 54 nM
3 | c1ccc2c(c1)C[C@H]1CN(CC3CC3)[C@@]23CCCC[C@@H]13 (relative stereo) [Example 20, (+/-)-(4aα,10α,10aα)-12-(Cyclopropylmethyl)-1,3,4,9,10,10a-hexahydro-2H-4a,10-(iminomethano)-phenanthrene] | 51 nM
4 | c1ccc2c(c1)C[C@H]1CN[C@@]23CCCC[C@@H]13 (relative stereo) [Example 14, (+/-)-(4aα,10α,10aα) 1,3,4,9,10,10a Hexahydro-2H-4a,10-(iminomethano)phenanthrene] | 86 nM
5 | c1csc(C2(N3CCCCC3)CCCCC2)c1 [TCP, 1[1-(2 thienyl)cyclohexyl]piperidine] | 9 nM
6 | CN1C[C@@H]2Cc3ccccc3[C@]13CCCC[C@@H]23 (relative stereo) [Example 16, (+/-)-(4aα,10α,10aα) 1,3,4,9,10,10a-Hexahydro-12-methyl-2H 4a,10-(iminomethano)phenanthrene] | 137 nM
